What was measured:
[1] = TBA (2-thiobarbituric acid) lipid oxidation test; format: physicochemical; conditions: 1, 2, and 4% α-tocopherol in SL, after 48 hours
Protocol: TBA. A modified extraction 2-thiobarbituric acid method was used, Salih, et al., Poult. Sci., 66:1483-1488 (1987). The TBA test expresses lipid oxidation in milligram malonaldehyde (secondary oxidation product of polyunsaturated fatty acids) per kilogram of sample. 1±0.002 grams of SL was mixed with 0.01, 0.02, and 0.04 grams of α-tocopherol in a 25 mL flask and left at room temperature without protection from light for 12, 24, and 48 hours. Each sample was then purged with nitrogen and stored at −90° C. until assay. One milliliter of 6% BHT in ethanol and 25 mL 5% TCA solution in distilled water were added to each sample and blended. A 2 mL aliquot of the blended sample was mixed with 0.02 M TBA solution (3 mL) in screw capped test tubes. After vortexing (30 sec.), the tubes were incubated in boiling water for 30 min., cooled and the absorbance against blank was measured at 535 nm. A 5 μL aliquot of TEP (0.92 g/mL) was diluted to 5 mL with 5% TCA solution and diluted to prepare various concentrations ranging from […]. Each dilution was incubated and the absorbance against blank was measured after cooling. Standard curve was plotted using absorbance values vs amount of TEP which was converted from concentration.

[2] = Oxidative stability index (OSI); format: physicochemical; conditions: 80° C., air flow […]
Protocol: Oxidative stability index (OSI). An Oxidative Stability Instrument (Omnion, Rockland, Mass.) was used to measure induction times. Five grams of tricaprylin, EPAX 5500 (fish oil TAG, Pronova Biocare, Sandefjord, Norway), and SL which was deacidified by alkali-liquid extraction were placed into the disposable borosilicate glass reaction tubes with disposable pipets. The heating temperature was 80° C. The polycarbonate conductivity tubes were filled with deionized water and he probes were connected. After temperature reached 80° C., air was bubbled in. […] OSI time was determined with an on-line computer, which monitored the conductivity vs time and plotted the induction period automatically. OSI values at 80° C. were converted to AOM and OSI values at 97.8° C.

Row | SMILES | antioxidant effect on SL (TBA) [1] | OSI value [2]
1 | Cc1c(C)c2c(c(C)c1O)CC[C@@](C)(CCC[C@H](C)CCC[C@H](C)CCCC(C)C)O2 [α-tocopherol] | reduced the oxidation of SL significantly | 
2 | CCCCCCCC(=O)OCC(COC(=O)CCCCCCC)OC(=O)CCCCCCC [tricaprylin, 1,2,3-trioctanoyl glycerol] |  | quite stable to oxidation

— patent publication US6369252B1, “Structured lipids” (The University of Georgia Research Foundation, Inc., priority 1998, dated 2002)
